Source: BindingDB's records for doi:10.1021/jm021014d (University of Bari Aldo Moro, 2003)
Counter-ions that a name gives are not always drawn.

Experiment: Inhibition of [3H]pentazocine binding to Sigma receptor type 1 in guinea pig brain membrane without cerebellum

Ki	SMILES
0.86 nM	C(/C=C/c1ccc2c(c1)OCO2)=C\CN1CCCCC1 [1-(5-Benzo[1,3]dioxol-5-yl-penta-2,4-dienyl)-piperidine]
0.34 nM	CC1CCN([C@@H](C)COc2ccc(Cl)cc2)CC1 [1-[2-(4-Chloro-phenoxy)-1-methyl-ethyl]-4-methyl-piperidine; hydrochloride]
1.18 nM	CC1CCN([C@H](C)COc2ccc(Cl)cc2)CC1 [1-[2-(4-Chloro-phenoxy)-1-methyl-ethyl]-4-methyl-piperidine; hydrochloride]
1.7 nM	CC1CCN(C[C@@H](C)COc2ccc(Cl)cc2)CC1 [1-[3-(4-Chloro-phenoxy)-2-methyl-propyl]-4-methyl-piperidine; hydrochloride]
1.09 nM	CC1CCN(C[C@H](C)COc2ccc(Cl)cc2)CC1 [1-[3-(4-Chloro-phenoxy)-2-methyl-propyl]-4-methyl-piperidine; hydrochloride]
